{"source": "patent US11001591B2", "about": "“TRAF 6 inhibitors” (HELMHOLTZ ZENTRUM MUENCHEN—DEUTSCHES FORSCHUNGSZENTRUM FÜR …, priority 2016, dated 2021)", "key": {"[1]": {"tested_on": "p-IκBα (Ser32/36)", "test": "ALPHASurefire p-IκBα in IL-1β stimulated MEF cells", "type": "cell-based, mouse", "settings": "compared with C25, C25-189, C25-167; FIG. 1C", "protocol": "In order to detect protein levels of p-IκBα (Ser32/36) as well as total IκBα, 1×10^4 MEF cells were seeded in 96-well plates, treated with compound for 6 hours and stimulated with 1 ng/ml IL-1β for 7 minutes. The p-IκBα and total IκBα protein levels were analyzed using the ALPHASurefire kits (PerkinElmer) following the manufacturer's instruction. The general 2-plate protocol was conducted."}, "[2]": {"target": "T1, MURF/TRIM63 (Homo sapiens, UniProt Q969Q1)", "T1 construct": "purchased Boston Biochem one of K-102, K-260, K-200B, K-220, K-240, K-270", "test": "In vitro ubiquitination assay, MURF/TRIM63", "type": "biochemical", "settings": "K48 chain formation", "protocol": "For analysis of clAP1, MDM2, TRIM63, RNF4, ITCH and E6AP mediated poly-ubiquitination, the respective ubiquitin ligase kit from Boston Biochem (K-102, K-260, K-200B, K-220, K-240 and K-270) was used. Here, reaction buffer, E1, E2 and E3 enzyme (and p53 substrate in case of MDM2) were mixed and pre-incubated with compound or DMSO for 5 minutes at room temperature before adding Mg^2+-ATP and mono-ubiquitin for reaction start. Ubiquitination was visualized by Western Blot analyses."}, "[3]": {"tested_on": "Jurkat T-cells and U2OS cells", "test": "Cell cycle assessment (propidium iodide)", "type": "cell-based", "settings": "24 hours and 72 hours treatment", "protocol": "For cell cycle staining, cells were seeded at 2×10^5 cells per sample and treated with compound or DMSO. After the indicated incubation time (24 or 72 hours), cells were fixed in 100% Ethanol and subsequently stained with the Propidium Iodide staining solution (0.1% Triton X-100; 20 μg/ml Propidium Iodide; 200 μg/ml RNAse A in PBS) for 40 min in the dark. The Propidium Iodide fluorescence was collected using the Attune Flow Cytometer (Thermo Fisher Scientific). Analysis was performed using the Single Cell analysis software FlowJo."}, "[4]": {"tested_on": "human peripheral blood mononuclear cells (PBMCs)", "test": "Cytokine secretion of primary human PBMCs", "type": "cell-based", "protocol": "For measurement of cytokine secretion, 2×10^5 Jurkat T-cells or primary CD4^+ T-cells or human PBMCs per sample were seeded, treated with compound for 6 hours and stimulated as indicated. 20 hours after stimulation, supernatants were harvested and analyzed with the IL-2, IL-1β and TNFα Ready-Set-Go! ELISA (2nd Generation) kits provided by Affymatrix eBioscience.\nFor isolation of peripheral blood mononuclear cells (PBMCs) from 50 mL human blood of three different donors, blood was mixed with 800 units of Heparin (Sigma-Aldrich) and centrifuged at 300×g for 10 minutes without brake. After removal of the plasma fraction, buffy coat was diluted in 2 volumes PBS and added on top of 15 ml Lymphoprep (STEMCELL technologies). After centrifugation at 160×g for 20 minutes at room temperature without brake, platelets were removed and the cell suspension was centrifuged again at 350 xg for 20 minutes without brake. Mononuclear cells from the intermediate layer were transferred to a new falcon and washed 3 times in PBS supplemented with 0.1% BSA and 2 mM EDTA. In the end, cells were resuspended in RPMI medium containing 10% FCS, 1% Penicillin/Streptomycin and 50 μM β-mercaptoethanol. Per sample, 2×10^5 cells were seeded and treated with compound for 6 hours. The cells were stimulated with either 1 μg/ml Lipopolysaccharide (LPS) or CD3/CD28 (1 μg hCD3 (IgG2A), 4 μg hCD28 (IgG1), 2 μg ant-IgG2A and 2 μg ant-IgG2A) or 20 ng/IL-1β. Supernatants for analysis of cytokine secretion were harvested 20 hours after stimulation."}, "[5]": {"tested_on": "87 primary molecular targets", "test": "SafetyScreen87 (Eurofins Cerep Panlabs)", "type": "binding", "settings": "10 μM", "protocol": "The SafetyScreen87, a total of 87 assays, was carried out at Eurofins Cerep Panlabs. 87 primary molecular targets including 13 enzyme assays (kinases and non-kinase enzymes) and 74 binding assays (nuclear receptors, GPCRs, transporters and ion channels) were performed at a compound concentration of 10 μM C25-140. Each of the 87 assay reactions was performed at the optimised condition that was historically available at Eurofins Cerep Panlabs. In parallel to C25-140, a reference compound for each of the 87 reactions was concurrently tested to guarantee optimal setting of the assays. In this study the reference compounds performed in the same range as historic Ki values."}, "[6]": {"tested_on": "IMQ-induced psoriasis, Balb/C mice", "test": "Imiquimod (IMQ)-induced psoriasis mouse model", "type": "in vivo", "protocol": "To evaluate the anti-inflammatory activity of the compound C25-140 (compound 3), an Imiquimod (IMQ)-induced psoriasis mouse model was conducted by Washington Biotechnology, Inc. (Baltimore, USA). Per group, 8 male Balb/C mice were shaved in the back (1.5 cm×2 cm) and IMQ and C25-140 were applied topically to the shaved back and the right ear daily for 6 days. Thereby, C25-140 was dissolved in acetone and applied at a total dosage of 500 μg per day (2×250 μg). Mice were monitored and daily scores (erythema, scaling and thickness of back skin) were independently collected on a scale from 0 to 4:0=none; 1=slight; 2=moderate; 3=marked and 4=very marked. Ear thickness was measured by electronic calipers as an indicator of edema. IL-17 cytokine secretion of the right ear tissue was measured by ELISA."}, "[7]": {"tested_on": "U2OS cells", "test": "Cell growth of osteosarcoma cell line U2OS", "type": "cell-based", "protocol": "For analysis of the cell growth of the osteosarcoma cell line U20S, 5×10^3 cells were seeded in 96 well plates. 18 hours later, cells were treated with C25-140 (compound 3) or DMSO for 6 hours. Using a ^137caesium source (HWM-D2000), selected samples were irradiated with a dose of either 2 Gy or 4 Gy. Cell growth was measured every 24 hours for a period of 7 days by counting Hoechst33342 positive cells in an Operetta High-Content Imaging System (PerkinElmer) and the Harmony/Columbus analysis software (PerkinElmer)."}}, "data": [{"smiles": "Cc1nn(-c2ccc3nnc(C)n3n2)c(C)c1CCC(=O)N1CCC(Cc2ccccc2)CC1", "note": "[Compound 3, 1-(4-benzylpiperidin-1-yl)-3-(3,5-dimethyl-1-(3-methyl-[1,2,4]triazolo[4,3-b]pyridazin-6-yl)-1H-pyrazol-4-yl)propan-1-one]", "values": [{"measurement": "p-IκBα protein levels, ALPHASurefire", "setting": "[1]", "result": "more active"}, {"measurement": "S5A ubiquitination by MURF/TRIM63", "setting": "[2]", "result": "not affected"}, {"measurement": "cell cycle progression", "setting": "[3]", "result": "not impaired"}, {"measurement": "secretion of IL-2 and TNFα", "setting": "[4]; human PBMCs stimulated with CD3/CD28", "result": "decreased levels"}, {"measurement": "secretion of IL-6 and TNFα", "setting": "[4]; human PBMCs stimulated with IL-1β", "result": "attenuated"}, {"measurement": "secretion of IL-1β and TNFα", "setting": "[4]; human PBMCs stimulated with LPS", "result": "reduced levels"}, {"measurement": "binding to SafetyScreen87 targets", "setting": "[5]", "result": "no significant binding"}, {"measurement": "IL-17 in right ear tissue", "setting": "[6]; day 6, ELISA", "result": "decreased"}, {"measurement": "cumulative score (thickness, scaling, erythema of the back)", "setting": "[6]; topical twice daily, 6 days", "result": "reduces"}, {"measurement": "ear thickness", "setting": "[6]; topical twice daily, 6 days", "result": "significantly reduced"}, {"measurement": "scaling, erythema and ear thickness scores", "setting": "[6]; topical twice daily, 6 days", "result": "improvement of the disease symptoms"}, {"measurement": "thickness score of the back", "setting": "[6]; topical twice daily, 6 days", "result": "significantly reduce"}, {"measurement": "cell proliferation, compound alone vs 2Gy irradiation", "setting": "[7]; 30 μM", "result": "same inhibitory impact"}, {"measurement": "cell proliferation, combination with 2Gy irradiation", "setting": "[7]; 30 μM C25-140+2Gy", "result": "boosted the effect to the region of 4Gy irradiation"}]}]}
